# Results: patent US20100129800A1, “POLYMERS AND THEIR USE AS FLUORESCENT LABELS” (priority 2007, published 2010)
# Test: Fluorescence properties of the new compounds (excitation and emission wavelengths)
# Assay type: physicochemical
# Settings: not given
SMILES,Fluorescence Excitation (nm),Fluorescence emission (nm)
"CC(O)C(COP(=O)(O)OC(C)C(CO)NC(=O)c1cc(-c2ccccc2)nc2ccccc12)NC(=O)c1c2ccccc2nc2c1[nH]c1ccccc12 (centres unmarked) [Example 37, O-{2-N-(2-phenylquinoline-4-carbamoyl-1-hydroxybutan-3-yl)} and O-(2-N-{10H-indolo[3,2-d]quinoline-11-carbamoyl}-3-hydroxybut-1-yl)]",342 nm,492 nm

# Same assay, conditions: free compound
SMILES,Fluorescence Excitation (nm),Fluorescence emission (nm)
"CC(O)C(CO)NC(=O)c1c2ccccc2nc2c1[nH]c1ccccc12 (centres unmarked) [Compound 2a, N-(1,3-dihydroxybutan-2-yl)-10H-indolo[3,2-d]quinoline-11-carboxamide]",346 nm,402 nm
"CC(O)C(CO)NC(=O)c1c2ccccc2nc2ccccc12 (centres unmarked) [Compound 2b, N-(1,3-dihydroxybutan-2-yl)acridine-9-carboxamide]",358 nm,439 nm
"CC(O)C(CO)NC(=O)CNC(=O)c1c2ccccc2nc2ccccc12 (centres unmarked) [Compound 2d, N-((1,3-dihydroxybutan-2-ylcarbamoyl)methyl)acridine-9-carboxamide]",247 nm,440 nm
"C[C@@H](O)[C@H](CO)NC(=O)c1cc(-c2ccccc2)nc2ccccc12 [Compound 2e, N-((2S, 3R)-1,3-dihydroxybutan-2-yl)-2-phenylquinoline-4-carboxamide]",326 nm,377 nm
"C[C@@H](O)[C@H](CO)NC(=O)CN1c2ccccc2C=C2C3C=CC=CC3=NC21 (stereo partly drawn) [Compound 2f, N-((2S, 3R)-1,3-dihydroxybutan-2-yl)-(4a, 10a-dihydro-10,11-diazabenzo[b]fluoren-10-yl)acetamide]",261 nm,456 nm
"OC[C@H](O)CNc1c2ccccc2nc2ccccc12 [Compound 5a, (R)-3-(Acridin-9-ylamino)propane-1,2-diol]",433 nm,
"Cn1c2c3ccccc3nc-2c(NC[C@H](O)CO)c2ccccc21 [Compound 5b, (S)-3-(5-Methyl-5H-indolo[3,2b]quinolin-11-ylamino)propane-1,2-diol]",340 nm,469 nm
"CC(O)C(COP(=O)(O)OC(C)C(CO)NC(=O)c1c2ccccc2nc2c1[nH]c1ccccc12)NC(=O)c1c2ccccc2nc2c1[nH]c1ccccc12 (centres unmarked) [Example 28, O-{2-N-(10H-indolo[3,2-d]quinoline-11-carbamoyl)-(1-hydroxybut-3-yl)} and O-(2-N-{10H-indolo[3,2-d]quinoline-11-carbamoyl}-3-hydroxybut-1-yl)phosphate]",346 nm,495 nm
"CC(OP(=O)(O)OCC(O)CNc1c2nc3ccccc3c-2n(C)c2ccccc12)C(CO)NC(=O)c1c2ccccc2nc2ccccc12 [Example 31, O-{2-N-(Acridine-9-carbamoyl)-(1-hydroxybut-3-yl)} and O-{3-(5-methyl-5H-indolo[3,2b]quinolin-11-ylamino-(S)-(2-hydroxyprop-3-yl} phosphate]",353 nm,441 nm
"CC(OP(O)(=S)OC[C@@H](O)CNc1c2nc3ccccc3c-2n(C)c2ccccc12)C(CO)NC(=O)c1c2ccccc2nc2ccccc12 (stereo partly drawn) [Example 32, O-{2-N-(Acridine-9-carbamoyl)-(1-hydroxybut-3-yl)} and O-}3-(5-methyl-5H-indolo[3,2b]quinolin-11-ylamino-(S)-(2-hydroxyprop-3-yl} phosphorotioate]",359 nm,448 nm
"NC(=O)CCCOP(=O)(O)O[C@H](CNc1c2ccccc2nc2ccccc12)COP(=O)(O)O[C@@H](CO)CNc1c2ccccc2nc2ccccc12 [Example 33, O-[(R)-3-(Acridin-9-ylamino)-1-hydroxy-propane-2-yl]-phosphate (2-1) O-{2-N-(acridine-9-ylamino)-2-oxyprop-1-yl} phosphate(2-4) 4-hydroxybutirame]",359 nm,440 nm
"CC(O)C(COP(=O)(O)OC(C)C(CO)NC(=O)c1cc(-c2ccccc2)nc2ccccc12)NC(=O)c1c2ccccc2nc2ccccc12 (centres unmarked) [Example 34, O-{2-N-(2-phenylquinoline-4-carbamoyl-1-hydroxybutan-3-yl)} and O-{2-N-(acridine-9-carbamoyl)-3-hydroxybut-1-yl} phosphate]",252 nm,437 nm
"CC(O)C(COP(=O)(O)OC(C)C(CO)NC(=O)c1cc(-c2ccccc2)nc2ccccc12)NC(=O)c1cc(-c2ccccc2)nc2ccccc12 (centres unmarked) [Example 35, O-{2-N-(2-phenylquinoline-4-carbamoyl-1-hydroxybutan-3-yl)} and O-{2-N-(2-phenylquinoline-4-carbamoyl-3-hydroxybutan-1-yl)} phosphate]",330 nm,395 nm
"CC(O)C(COP(=O)(O)OC(C)C(CO)NC(=O)c1c2ccccc2nc2ccccc12)NC(=O)c1cc(-c2ccccc2)nc2ccccc12 (centres unmarked) [Example 36, O-{2-N-(acridine-9-carbamoyl)-1-hydroxybut-3-yl} and O-{2-N-(2-phenylquinoline-4-carbamoyl-3-hydroxybutan-1-yl)} phosphate]",252 nm,403 nm
"CC(O)C(COP(=O)(O)OC(C)C(COP(=O)(O)OC(C)C(CO)NC(=O)c1c2ccccc2nc2ccccc12)NC(=O)c1c2ccccc2nc2c1[nH]c1ccccc12)NC(=O)CNC(=O)c1c2ccccc2nc2ccccc12 (centres unmarked) [Example 38, O-{2-N-(Acridine-9-carbamoyl)-(1-hydroxybut-3-yl)} phosphate (3-1) O-{2-N-(10H-indolo[3,2-d]quinoline-11-carbamoyl)-3-oxybut-1-yl} phosphate (3-1) O-{2-N-(acridine-9-carboxamido)acetamidol-(3-hydroxybut-1-yl)}]",359 nm,438 nm
"CC(OP(=O)(O)OCC(O)CNc1c2nc3ccccc3c-2n(C)c2ccccc12)C(CO)NC(=O)c1c2ccccc2nc2c1[nH]c1ccccc12 [Example 41, O-{2-N-(10H-indolo[3,2-d]quinoline-11-carbamoyl)-3-oxybut-1-yl} phosphate (3-1) O-{3-(5-methyl-5H-indolo[3,2-b]quinolin-11-ylamino-(S)-(2hydroxylprop-3-yl)]",275 nm,476 nm
"CC(O)C(COP(=O)(O)OC(C)C(COP(=O)(O)OC(C)C(CO)NC(=O)c1c2ccccc2nc2ccccc12)NC(=O)c1c2ccccc2nc2ccccc12)NC(=O)c1c2ccccc2nc2ccccc12 (centres unmarked) [Example 43, O-{2-N-(Acridine-9-carbamoyl)-(1-hydroxybut-3-yl)} phosphate (3-1) O-{2-N-(acridine-9-carbamoyl)-(1-hydroxybut-3-yl)} phosphate (3-1) O-{2-N-(acridine-9-carbamoyl)-(3-hydroxybut-1-yl)}]",360 nm,440 nm
"CC(O)C(COP(=O)(O)OC(C)C(COP(=O)(O)OC(C)C(CO)NC(=O)c1c2ccccc2nc2ccccc12)NC(=O)c1c2ccccc2nc2c1[nH]c1ccccc12)NC(=O)Cn1c2nc3ccccc3c-2cc2ccccc21 (centres unmarked) [Example 45, O-{2-N-(Acridine-9-carbamoyl)-(1-hydroxybut-3-yl)} phosphate (3-1) O-{2-N-(10H-indolo[3,2-d]quinoline-11-carbamoyl)-3-oxybut-1-yl} phosphate (3-1) O-{2-N-(5H-indolo[2,3-b]quinolin-5-yl)acetamido-3-hydroxybut-1-yl)]",271 nm,449 nm
CC(=O)NCCN(CC(=O)NCCN(CC(=O)NCCCCCCO)C(=O)CNC(=O)c1c2ccccc2nc2ccccc12)C(=O)CNC(=O)c1c2ccccc2nc2ccccc12 [Example 46],248 nm,441 nm
CC(=O)NCCN(CC(=O)NCCN(CC(=O)NCCN(CC(=O)NCCCCCCO)C(=O)CNC(=O)c1c2ccccc2nc2ccccc12)C(=O)CNC(=O)c1c2ccccc2nc2ccccc12)C(=O)CNC(=O)c1c2ccccc2nc2ccccc12 [Example 47],360 nm,436 nm
"CC(=O)NC1CC(C(N)=O)N(C(=O)CNC(=O)c2c3ccccc3nc3ccccc23)C1 (centres unmarked) [Example 50, N-[2-(Acridine-9-carboxamide)acetyl]-4-N-acetamidoprolinamide]",282 nm,439 nm
"CC(=O)NC1CC(C(N)=O)N(C(=O)CNC(=O)c2c3ccccc3nc3c2[nH]c2ccccc23)C1 (centres unmarked) [Example 51, N-{2-(10H-indolo[3,2-b]quinoline-11-carboxamide)acetyl}-4-N-acetamidoprolinamide]",347 nm,502 nm
"CC(=O)N1CC(NC(=O)CNC(=O)c2c3ccccc3nc3ccccc23)C[C@H]1C(=O)N1CC(NC(=O)CNC(=O)c2c3ccccc3nc3ccccc23)C[C@H]1C(N)=O (some centres unmarked) [Example 52, N^4-Acetyl-4-amino-{2-(acridine-9-carboxamide)acetyl}prolinyl-4-amino-{2-(acridine-9-carboxamide)acetyl}prolinamide]",274 nm,450 nm
"CC(=O)N1CC(NC(=O)CNC(=O)c2c3ccccc3nc3c2[nH]c2ccccc23)C[C@H]1C(=O)N1CC(NC(=O)CNC(=O)c2c3ccccc3nc3c2[nH]c2ccccc23)C[C@H]1C(N)=O (some centres unmarked) [Example 53, N^4-Acetyl-4-amino-{2-(10H-indolo[3,2-b]quinoline-11-carboxamide)acetyl}prolinyl-4-amino-{2-(10H-indolo[3,2-b]quinoline-11-carboxamide)acetyl}prolinamide]",348 nm,
"CC(=O)NC1CC(C(=O)NC2CC(C(N)=O)N(C(=O)CNC(=O)c3c4ccccc4nc4ccccc34)C2)N(C(=O)CNC(=O)c2c3ccccc3nc3c2[nH]c2ccccc23)C1 (centres unmarked) [Example 54, 10H-Indolo[3,2-b]quinoline-11-carboxylic acid {2-[4-acetylamino-2-(1-{2-[(acridine-9-carbonyl)-amino]-acetyl}-5-carbamoyl-pyrrolidin-3-ylcarbamoyl)-pyrrolidin-1-yl]-2-oxo-ethyl}-amide]",273 nm,498 nm
